Results as given in patent US10660877B2 (BRISTOL-MYERS SQUIBB COMPANY, priority 2016, dated 2020).
Like-named read-outs stand apart in the source and are kept apart here.

Assays:
human TLR7 = human TLR7 (Homo sapiens (Human), UniProt Q9NYK1); assay: TLR7 inhibition reporter assay (HEK-Blue cells, SEAP reporter, gardiquimod stimulation); format: cell-based
human TLR9 = human TLR9 (Homo sapiens (Human), UniProt Q9NR96); assay: TLR9 inhibition reporter assay (HEK-Blue cells, SEAP reporter, ODN2006 stimulation);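 also: compounds tested over 0.05 nM to 50 µM, 22 h incubation, inhibition taken as SEAP signal drop from agonist plus DMSO wells toward a known inhibitor control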
human TLR8 = human TLR8 (Homo sapiens (Human), UniProt Q9NR97); assay: TLR8 inhibition reporter assay (HEK-Blue cells, SEAP reporter, R848 stimulation);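 also: compounds tested from 0.05 nM to 50 µM, 22 h at 37 °C, SEAP measured with HEK-Blue Detection, inhibition relative to agonist plus DMSO versus a known inhibitor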
[1] = HEK-Blue cells overexpressing human TLR7, gardiquimod 7.5 μM
[2] = read-out: TLR9 IC50, HEK-Blue cells overexpressing human TLR9, ODN2006 5 nM
[3] = read-out: TLR8 IC50, HEK-Blue cells overexpressing human TLR8, R848 15.9 μM
[4] = HEK-Blue cells, gardiquimod 7.5 μM
[5] = read-out: TLR9 IC50, HEK-Blue cells, ODN2006 5 nM
[6] = read-out: TLR8 IC50, HEK-Blue cells, R848 15.9 μM

Sequence of human TLR7 (Q9NYK1 27-1049): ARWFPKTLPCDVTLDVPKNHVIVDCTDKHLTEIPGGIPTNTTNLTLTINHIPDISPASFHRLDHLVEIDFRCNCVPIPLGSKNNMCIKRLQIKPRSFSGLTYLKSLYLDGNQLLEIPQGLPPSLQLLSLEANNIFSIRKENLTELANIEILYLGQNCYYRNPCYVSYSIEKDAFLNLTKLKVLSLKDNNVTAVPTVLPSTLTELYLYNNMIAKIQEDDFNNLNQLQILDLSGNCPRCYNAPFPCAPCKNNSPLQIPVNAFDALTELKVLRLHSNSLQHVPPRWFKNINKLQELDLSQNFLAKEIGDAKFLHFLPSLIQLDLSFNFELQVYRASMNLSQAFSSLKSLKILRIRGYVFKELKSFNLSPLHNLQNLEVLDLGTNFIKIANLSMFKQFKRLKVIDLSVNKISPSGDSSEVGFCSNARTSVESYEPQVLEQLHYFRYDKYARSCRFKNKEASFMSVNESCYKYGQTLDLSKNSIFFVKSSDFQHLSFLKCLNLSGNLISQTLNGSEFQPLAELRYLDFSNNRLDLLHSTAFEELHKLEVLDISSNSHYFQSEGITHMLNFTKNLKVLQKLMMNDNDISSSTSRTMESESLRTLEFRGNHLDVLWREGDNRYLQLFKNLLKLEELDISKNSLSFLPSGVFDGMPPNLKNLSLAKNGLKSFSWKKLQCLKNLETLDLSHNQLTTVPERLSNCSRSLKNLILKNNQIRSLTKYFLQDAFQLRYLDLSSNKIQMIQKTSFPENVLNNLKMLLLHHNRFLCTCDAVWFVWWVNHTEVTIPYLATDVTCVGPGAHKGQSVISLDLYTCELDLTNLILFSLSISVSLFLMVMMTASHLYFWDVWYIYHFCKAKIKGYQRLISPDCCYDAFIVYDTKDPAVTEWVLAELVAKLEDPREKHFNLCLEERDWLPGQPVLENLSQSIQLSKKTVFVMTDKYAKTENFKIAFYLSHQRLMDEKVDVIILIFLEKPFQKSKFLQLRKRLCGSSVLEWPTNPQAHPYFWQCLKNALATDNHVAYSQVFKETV
Sequence of human TLR8 (Q9NR97 27-1041): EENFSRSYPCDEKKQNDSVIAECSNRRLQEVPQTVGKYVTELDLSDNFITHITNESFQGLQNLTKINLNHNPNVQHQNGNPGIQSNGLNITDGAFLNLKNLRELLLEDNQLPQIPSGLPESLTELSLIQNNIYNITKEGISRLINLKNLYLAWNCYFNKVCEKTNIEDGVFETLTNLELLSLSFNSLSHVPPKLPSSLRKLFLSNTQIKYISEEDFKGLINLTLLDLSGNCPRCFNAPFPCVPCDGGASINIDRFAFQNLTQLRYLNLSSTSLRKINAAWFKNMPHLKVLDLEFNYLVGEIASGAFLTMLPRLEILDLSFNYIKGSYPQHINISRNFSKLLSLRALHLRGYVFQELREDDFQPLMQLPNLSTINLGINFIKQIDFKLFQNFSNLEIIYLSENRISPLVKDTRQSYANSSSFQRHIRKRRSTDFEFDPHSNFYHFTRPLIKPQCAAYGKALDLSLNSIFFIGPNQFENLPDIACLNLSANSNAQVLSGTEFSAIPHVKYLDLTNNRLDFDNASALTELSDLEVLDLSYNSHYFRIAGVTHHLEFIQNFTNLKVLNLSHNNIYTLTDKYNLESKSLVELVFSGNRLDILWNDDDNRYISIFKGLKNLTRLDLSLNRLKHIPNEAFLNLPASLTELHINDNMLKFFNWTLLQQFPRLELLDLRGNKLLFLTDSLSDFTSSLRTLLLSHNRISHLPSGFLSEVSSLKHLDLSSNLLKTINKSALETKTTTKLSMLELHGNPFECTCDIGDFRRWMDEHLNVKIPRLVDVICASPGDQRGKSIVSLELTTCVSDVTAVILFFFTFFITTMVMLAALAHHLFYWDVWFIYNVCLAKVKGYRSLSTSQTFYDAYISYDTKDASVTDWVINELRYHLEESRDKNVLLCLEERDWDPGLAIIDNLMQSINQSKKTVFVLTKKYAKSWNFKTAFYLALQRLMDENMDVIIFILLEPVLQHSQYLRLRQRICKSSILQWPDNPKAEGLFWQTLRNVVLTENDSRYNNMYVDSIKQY
Sequence of human TLR9 (Q9NR96 26-1032): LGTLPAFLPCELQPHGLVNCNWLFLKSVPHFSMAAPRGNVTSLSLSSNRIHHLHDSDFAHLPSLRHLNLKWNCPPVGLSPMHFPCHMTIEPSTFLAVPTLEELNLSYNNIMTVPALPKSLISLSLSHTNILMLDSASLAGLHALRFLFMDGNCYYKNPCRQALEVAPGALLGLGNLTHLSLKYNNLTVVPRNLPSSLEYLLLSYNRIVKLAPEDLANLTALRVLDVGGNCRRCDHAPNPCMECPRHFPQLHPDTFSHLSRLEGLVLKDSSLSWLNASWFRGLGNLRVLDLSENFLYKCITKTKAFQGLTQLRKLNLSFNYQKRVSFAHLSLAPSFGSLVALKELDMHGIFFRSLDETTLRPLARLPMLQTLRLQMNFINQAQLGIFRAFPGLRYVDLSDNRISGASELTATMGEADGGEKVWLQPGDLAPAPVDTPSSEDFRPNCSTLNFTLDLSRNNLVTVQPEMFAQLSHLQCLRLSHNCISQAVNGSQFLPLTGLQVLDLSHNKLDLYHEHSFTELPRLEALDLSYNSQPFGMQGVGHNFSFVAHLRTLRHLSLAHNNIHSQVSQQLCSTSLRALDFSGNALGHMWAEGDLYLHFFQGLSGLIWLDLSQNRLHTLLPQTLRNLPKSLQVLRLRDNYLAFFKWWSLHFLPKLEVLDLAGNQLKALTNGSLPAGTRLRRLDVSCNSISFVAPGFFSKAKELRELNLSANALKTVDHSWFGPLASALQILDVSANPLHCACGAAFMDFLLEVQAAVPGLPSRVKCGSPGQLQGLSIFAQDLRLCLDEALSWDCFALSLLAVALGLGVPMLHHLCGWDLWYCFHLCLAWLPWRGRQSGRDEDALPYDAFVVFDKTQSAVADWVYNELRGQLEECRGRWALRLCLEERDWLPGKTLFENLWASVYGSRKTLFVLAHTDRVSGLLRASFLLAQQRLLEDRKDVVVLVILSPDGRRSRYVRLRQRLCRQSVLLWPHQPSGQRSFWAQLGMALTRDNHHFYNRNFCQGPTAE

| Compound | IC50 (human TLR7; [1]) [nM] | IC50 (human TLR9; [2]) [nM] | IC50 (human TLR8; [3]) [nM] | IC50 (human TLR7; [4]) [nM] | IC50 (human TLR9; [5]) [nM] | IC50 (human TLR8; [6]) [nM] |
| --- | --- | --- | --- | --- | --- | --- |
| Cc1cc(-c2[nH]c3cc(C(F)(F)F)c(C4CCNCC4)cc3c2C(C)C)ccn1 [Example 74, 3-isopropyl-2-(2-methylpyridin-4-yl)-5-(piperidin-4-yl)-6-(trifluoromethyl)-1H-indole] | 13.1 | 1160 | 437 |  |  |  |
| CCc1c(-c2ccnc(NC(C)=O)c2)[nH]c2ccc(C3CCN(C4CCN(CC(C)C)CC4)CC3)cc12 [Example 766, N-(4-(3-ethyl-5-(1′-isobutyl-[1,4′-bipiperidin]-4-yl)-1H-indol-2-yl)pyridin-2-yl)acetamide] | 3980 | 83 | 245 |  |  |  |
| Cc1cc(-c2[nH]c3cc(F)c(C4CCN(CC(=O)N(C)C)CC4)cc3c2C(C)C)cc(C)n1 [Example 837, 2-(4-(2-(2,6-dimethylpyridin-4-yl)-6-fluoro-3-isopropyl-1H-indol-5-yl)piperidin-1-yl)-N,N-dimethylacetamide] |  |  |  | 1.9 | 194 | 11.4 |
| Cc1cc(-c2[nH]c3ccc(C4CCN(C(=O)CN(C)C)CC4)cc3c2C(C)C)ccn1 [Example 509, 2-(dimethylamino)-1-(4-(3-isopropyl-2-(2-methylpyridin-4-yl)-1H-indol-5-yl)piperidin-1-yl)ethan-1-one] | 20 | 3710 | 21.9 |  |  |  |
| Cc1cc(-c2[nH]c3ccc(C4CCN(CC(=O)N5CCCCC5C)CC4)cc3c2C(C)C)cc(C)n1 (stereo not drawn) [Example 270, 2-(4-(2-(2,6-dimethylpyridin-4-yl)-3-isopropyl-1H-indol-5-yl)piperidin-1-yl)-1-(2-methylpiperidin-1-yl)ethan-1-one] | 6.4 | 192 | 15.5 |  |  |  |
| Cc1cc(-c2[nH]c3ccc(C4CCN(Cc5nnc(C6CC6)o5)CC4)cc3c2C(C)C)c(C)cn1 [Example 697, 2-cyclopropyl-5-((4-(2-(2,5-dimethylpyridin-4-yl)-3-isopropyl-1H-indol-5-yl)piperidin-1-yl)methyl)-1,3,4-oxadiazole] | 223 | > 50000 | 20.7 |  |  |  |
| Cc1cc(-c2[nH]c3ccc(C4CCN(S(=O)(=O)c5ccc(Cl)cc5)CC4)cc3c2C(C)C)ccn1 [Example 542, 5-(1-((4-chlorophenyl)sulfonyl)piperidin-4-yl)-3-isopropyl-2-(2-methylpyridin-4-yl)-1H-indole] | 1160 | > 50000 | 1480 |  |  |  |
| Cc1cc(-c2[nH]c3ccc(C4CCN(C(=O)C5CCOC(C(C)C)C5)CC4)cc3c2C(C)C)ccn1 (stereo not drawn) [Example 598, (4-(3-isopropyl-2-(2-methylpyridin-4-yl)-1H-indol-5-yl)piperidin-1-yl)(2-isopropyltetrahydro-2H-pyran-4-yl)methanone] | 99.6 | 9940 | 374 |  |  |  |
| Cc1cc(-c2[nH]c3ccc(C4CCN(C(=O)CN5CCOCC5)CC4)cc3c2C(C)C)cc(C)n1 [Example 350, 1-(4-(2-(2,6-dimethylpyridin-4-yl)-3-isopropyl-1H-indol-5-yl)piperidin-1-yl)-2-morpholinoethan-1-one] | 5.3 | 3910 | 29 |  |  |  |
| Cc1cc(-c2[nH]c3ccc(C4CCN(CCC#N)CC4)cc3c2C(C)C)c(F)cn1 [Example 656, 3-(4-(2-(5-fluoro-2-methylpyridin-4-yl)-3-isopropyl-1H-indol-5-yl)piperidin-1-yl)propanenitrile] | 9.3 | > 50000 | 1.9 |  |  |  |
| Cc1cc(-c2[nH]c3ccc(C4CCN(CC(=O)N5CCC(O)CC5)CC4)cc3c2C(C)C)cc(C)n1 [Example 230, 2-(4-(2-(2,6-dimethylpyridin-4-yl)-3-isopropyl-1H-indol-5-yl)piperidin-1-yl)-1-(4-hydroxypiperidin-1-yl)ethan-1-one] | 4 | 74 | 17 |  |  |  |
| Cc1cc(-c2[nH]c3ccc(C4CCNCC4)cc3c2C(C)C)cc(F)n1 [Example 3, 2-(2-fluoro-6-methylpyridin-4-yl)-3-isopropyl-5-(piperidin-4-yl)-1H-indole] | 1.8 | 1890 | 3.8 |  |  |  |
| Cc1cc(-c2[nH]c3ccc(C4CCN(CC5(C)COC5)CC4)cc3c2C(C)C)cc(C)n1 [Example 475, 2-(2,6-dimethylpyridin-4-yl)-3-isopropyl-5-(1-((3-methyloxetan-3-yl)methyl)piperidin-4-yl)-1H-indole] | 4.1 | 335 | 2.2 |  |  |  |
| Cc1cc(-c2[nH]c3ccc(C4CCN(Cc5ccn(C)n5)CC4)cc3c2C(C)C)c(F)cn1 [Example 692] | 10.3 | 1480 | 0.9 |  |  |  |
| Cc1cc(-c2[nH]c3ccc(C4CCN(C5CCOCC5)CC4)cc3c2C(C)C)c(C)cn1 [Example 714, 2-(2,5-dimethylpyridin-4-yl)-3-isopropyl-5-(1-(tetrahydro-2H-pyran-4-yl)piperidin-4-yl)-1H-indole] | 31.4 | 2210 | 2.7 |  |  |  |
| Cc1cc(-c2[nH]c3ccc(C4CCN(C(=O)CN(C)C)CC4)cc3c2C(C)C)c(F)c(C)n1 [Example 588, 2-(dimethylamino)-1-(4-(2-(3-fluoro-2,6-dimethylpyridin-4-yl)-3-isopropyl-1H-indol-5-yl)piperidin-1-yl)ethan-1-one] | 0.5 | 845 | 1.3 |  |  |  |
| CCc1c(-c2ccnc(C)c2)[nH]c2ccc(C3CCN(C(=O)CCN(C)C)CC3)cc12 [Example 594, 3-(dimethylamino)-1-(4-(3-ethyl-2-(2-methylpyridin-4-yl)-1H-indol-5-yl)piperidin-1-yl)propan-1-one] | 30.2 | 610 | 39.4 |  |  |  |
| CCCCN(CCO)C(=O)CN1CCC(c2ccc3[nH]c(-c4cc(C)nc(C)c4)c(C(C)C)c3c2)CC1 [Example 298, N-butyl-2-(4-(2-(2,6-dimethylpyridin-4-yl)-3-isopropyl-1H-indol-5-yl)piperidin-1-yl)-N-(2-hydroxyethyl)acetamide] | 25.6 | 2670 | 100 |  |  |  |
| Cc1cc(-c2[nH]c3ccc(C4CCN(C(=O)C(C)(C)O)CC4)cc3c2C(C)C)cc(C)n1 [Example 173, 1-(4-(2-(2,6-dimethylpyridin-4-yl)-3-isopropyl-1H-indol-5-yl)piperidin-1-yl)-2-hydroxy-2-methylpropan-1-one] | 6.2 | 43300 | 88.3 |  |  |  |
| Cc1cc(-c2[nH]c3ccc(C4CCN(CC(=O)NC5(C)CCOCC5)CC4)cc3c2C(C)C)cc(C)n1 [Example 267, 2-(4-(2-(2,6-dimethylpyridin-4-yl)-3-isopropyl-1H-indol-5-yl)piperidin-1-yl)-N-(4-methyltetrahydro-2H-pyran-4-yl)acetamide] | 2.6 | 348 | 11.1 |  |  |  |
| Cc1cc(-c2[nH]c3ccc(C4CCN(C(=O)CN5CCC[C@H]5CO)CC4)cc3c2C(C)C)cc(C)n1 [Example 381, (S)-1-(4-(2-(2,6-dimethylpyridin-4-yl)-3-isopropyl-1H-indol-5-yl)piperidin-1-yl)-2-(2-(hydroxymethyl)pyrrolidin-1-yl)ethan-1-one] | 2.2 | 348 | 9.8 |  |  |  |
| C=CC(C)(O)CN1CCC(c2ccc3[nH]c(-c4cc(C)nc(C)c4)c(C(C)C)c3c2)CC1 (stereo not drawn) [Example 853, 1-(4-(2-(2,6-dimethylpyridin-4-yl)-3-isopropyl-1H-indol-5-yl)piperidin-1-yl)-2-methylbut-3-en-2-ol] |  |  |  | 2.3 | 293 | 1 |
| Cc1cc(-c2[nH]c3ccc(C4CCN(C(=O)C(F)(F)F)CC4)cc3c2C(C)C)ccn1 [Example 614, 2,2,2-trifluoro-1-(4-(3-isopropyl-2-(2-methylpyridin-4-yl)-1H-indol-5-yl)piperidin-1-yl)ethan-1-one] | 119 | 17500 | 469 |  |  |  |
| Cc1cc(-c2[nH]c3ccc(C4CCN(C(=O)CN5CCC[C@@H]5CO)CC4)cc3c2C(C)C)cc(C)n1 [Example 412, (R)-1-(4-(2-(2,6-dimethylpyridin-4-yl)-3-isopropyl-1H-indol-5-yl)piperidin-1-yl)-2-(2-(hydroxymethyl)pyrrolidin-1-yl)ethan-1-one] | 4.7 | 568 | 34 |  |  |  |
| Cc1cc(-c2[nH]c3ccc(C4CCN(C5CCCN(C(C)C)C5)CC4)cc3c2C(C)C)ccn1 (stereo not drawn) [Example 707, 3-isopropyl-5-(1′-isopropyl-[1,3′-bipiperidin]-4-yl)-2-(2-methylpyridin-4-yl)-1H-indole] | 7.6 | 217 | 2.8 |  |  |  |
| Cc1cc(-c2[nH]c3ccc(C4CCNCC4)cc3c2C(C)C)c(N)cn1 [Example 10, 4-(3-isopropyl-5-(piperidin-4-yl)-1H-indol-2-yl)-6-methylpyridin-3-amine] | 5.1 | 354 | 6.3 |  |  |  |
| Cc1cc(-c2[nH]c3ccc(C4CCN(CC(=O)N(C)CCC5(O)CCCC5)CC4)cc3c2C(C)C)cc(C)n1 [Example 303, 2-(4-(2-(2,6-dimethylpyridin-4-yl)-3-isopropyl-1H-indol-5-yl)piperidin-1-yl)-N-(2-(1-hydroxycyclopentyl)ethyl)-N-methylacetamide] | 7.8 | 402 | 35.4 |  |  |  |
| Cc1cc(-c2[nH]c3cc(F)c(C4CCN(CC(=O)N(C)C)CC4)cc3c2C(C)C)c(F)cn1 [Example 836, 2-(4-(6-fluoro-2-(5-fluoro-2-methylpyridin-4-yl)-3-isopropyl-1H-indol-5-yl)piperidin-1-yl)-N,N-dimethylacetamide] |  |  |  | 3.9 | 4730 | 11.8 |
